Experimental data: patent US8334316B2, “Substituted organosulfur compounds and methods of using thereof” (ACEA Biosciences, Inc., priority 2004, dated 2012)
“And” between values parts separate entries of the source, which are not always exact repeats. Equal entries are not always repeated. Marks after values point to notes of the source that are not given here.

Tests used:
[1] = tested on: P388 lymphocytic leukemia; test: Murine P388 lymphocytic leukemia model (intraperitoneal transplantation), life span; assay type: in vivo, mouse; conditions: 50 mg/kg/d iv x7 qd
Description: Both male and female mice were used.
Preparation and Administration of Test Compounds.
To prepare cancer cells for the P388 murine lymphocytic leukemia model, ascites of a P388 leukemia-bearing mouse were removed under sterile condition. The ascites were diluted in normal saline (1:6 for ascites to normal saline) to prepare cell suspension. 0.2 mL of the cell suspension was then injected intraperitoneally. […] The life span of carrier mice was determined within 30 days. The life span ratio comparing to the negative control group of the carrier mice in each compound treatment group was calculated according to the formula: Life span ratio %=average life span for the compound treatment group/average life span for the negative control group×100% (4)

[2] = tested on: ao10/17 human ovarian cancer; test: ao10/17 human ovarian cancer xenograft in nude mice (Example 4); assay type: in vivo; conditions: for Body weight of mice / Mice with palpable tumor / total mice / Tumor volume (cm^3): 50 mg/kg iv x7 qd
Description: Only female mice were used in this study. […] The high, middle and low doses of ACEA100108 were 50, […] and 8 mg/kg/d, respectively.
Preparation and Administration of Test Compounds. […] The high, middle and low dose of compound ACEA100108 was 50, 20 and 8 mg/kg, respectively.
The tumor tissues were grounded in normal saline (1:6 for tumor volume to saline volume) and tumor cell suspensions were prepared in the normal saline.
For the human ovarian cancer xenograft model, all used materials, including animal food, animal cage, supporting materials and apparatus contacted by animals, were high-pressure sterilized. Nude mice were maintained in laminar flow shelves under SPF condition. After tumor transplantation, mouse weight and tumor size in each compound dosage group were dynamically monitored and plotted. The tumor size was determined by measuring the major axis (a) and minor axis (b) of the tumor, and tumor volume was calculated according to the equation (3) in Example 3.

HCT-8 human colon cancer = HCT-8 human colon cancer xenograft in nude mice (Example 3); assay type: in vivo; conditions: 50 mg/kg/d iv x7 qd
Text: Both male and female mice were used. […] Test control. […] Preparation and Administration of Test Compounds. […] For human tumor xenograft model, all used materials, including animal food, animal cage, supporting materials and apparatus contacted by animals, were high-pressure sterilized. Nude mice were maintained in laminar flow shelves under SPF condition. After tumor transplantation, mouse weight and tumor size in each compound dosage group were dynamically monitored and plotted.

[3] = 25 d (end), listed as ACEA100101

## c1ccc(CSSSCc2ccccc2)cc1 [DBTS, Dibenzyl trisulfide]
[1]
  animal No. beginning/end (survivors): 10/0
[1]; observed within 30 days
  Average life span X ± SD: 10.6 ± 1.26
[1]; vs solvent control
  Life span ratio %: 109.28%
[2]; 0 d (beginning), listed as ACEA100101
  Body weight of mice: 17.3 g and 17.3 ± 1 g
[2]; 7 D after transplantation
  Mice with palpable tumor / total mice: 2/6
  Tumor volume (cm^3): 0.01 cm^3
[2]; 7 d
  Body weight of mice: 17.3 ± 1.4 g
[2]; 14 d
  Body weight of mice: 18.8 ± 1.2 g
  Mice with palpable tumor / total mice: 6/6
  Tumor volume (cm^3): 0.01 cm^3
[2]; 21 d
  Body weight of mice: 19.5 ± 1 g
  Tumor volume (cm^3): 0.129 ± 0.01 cm^3
[2]; 24 d
  Tumor volume (cm^3): 0.225 ± 0.04 cm^3
[2]; 24 d (end), listed as ACEA100101
  Body weight of mice: 21.3 g and 21.3 ± 1.2 g
[2]; 50 mg/kg/d iv x7 qd
  Tumor weight: 0.602 ± 0.10 g
[2]; 50 mg/kg/d iv x7 qd, vs solvent control
  tumor inhibition rate %: 57.30%
HCT-8 human colon cancer
  TV inhibition rate % T/C: 32.17%
  Tumor weight: 0.825 ± 0.07 g
HCT-8 human colon cancer; 0 Day (beginning), listed as ACEA100101
  Mouse Body weight: 18.2 g and 18.2 ± 1.2 g
HCT-8 human colon cancer; 7 d
  Mouse Body weight: 18.8 ± 1 g
HCT-8 human colon cancer; 7 day after transplantation
  Mice with palpable tumor / total mice: 4/6††
  Tumor volume (cm^3): 0.01 cm^3
HCT-8 human colon cancer; 14 d
  Mouse Body weight: 19.5 ± 1 g
  Tumor volume (cm^3): 0.031 ± 0.02 cm^3
HCT-8 human colon cancer; 21 d
  Mouse Body weight: 20.7 ± 0.8 g
  Tumor volume (cm^3): 0.204 ± 0.03 cm^3
HCT-8 human colon cancer; [3]
  Mouse Body weight: 23.0 g and 23 ± 1.3 g
  Tumor volume (cm^3): 0.502 cm^3 and 0.502 ± 0.18 cm^3
HCT-8 human colon cancer; vs solvent control
  tumor inhibition rate %: 46.08%
